From patent publication US10800782B2, “Inhibitors of cellular metabolic processes” (Agios Pharmaceuticals, Inc., priority 2016, dated 2020)

target: T1, MAT2A (Homo sapiens, UniProt P31153); assay: MAT2A biochemical assay (colorimetric inorganic phosphate detection, PiColorLock); settings: recombinant His6-tagged MAT2A 1 μg/ml; 60 minutes preincubation at 25° C.; L-Met 80 μM, ATP 100 μM; 60 minutes reaction; read at 623 nm; read-out: MAT2A Inhibition Score
T1 construct: His6; made in house; host or cells: SF9 insect cells
T1 sequence (P31153 whole entry): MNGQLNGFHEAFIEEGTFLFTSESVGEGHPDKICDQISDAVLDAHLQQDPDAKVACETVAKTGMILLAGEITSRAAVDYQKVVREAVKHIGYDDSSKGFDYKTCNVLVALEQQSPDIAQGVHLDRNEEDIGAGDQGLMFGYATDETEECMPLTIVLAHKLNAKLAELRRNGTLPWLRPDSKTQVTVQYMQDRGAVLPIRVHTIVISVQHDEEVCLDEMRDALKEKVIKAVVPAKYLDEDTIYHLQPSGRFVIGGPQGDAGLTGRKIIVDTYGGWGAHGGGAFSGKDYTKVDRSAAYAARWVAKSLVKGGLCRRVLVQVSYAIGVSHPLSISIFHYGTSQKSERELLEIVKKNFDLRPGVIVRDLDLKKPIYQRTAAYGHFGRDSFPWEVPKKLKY
Experimental: In the reaction catalyzed by MAT2A enzyme, L-Met and ATP were converted to SAM, inorganic phosphate, and inorganic diphosphate. […] The concentration of malachite green phosphomolybdate produced in the detection reaction is thus directly related to the quantity of product produced by the MAT2A enzyme. Multiple commercial kits exist for this method of phosphate detection and quantification, such as PiColorLock Gold (Innova Biosciences). Typical reaction was performed in 50 μl final volume, containing buffer (Tris, pH 8.0, 50 mM KCl, 15 mM MgCl2, 300 uM EDTA, bovine serum albumin at 0.005% w/v) and 1 μg/ml MAT2A. Compounds were added in 1 μl of DMSO at the desired concentration; a typical dose response curve contained ten points with three-fold dilution between compound concentrations. […] The reaction was allowed to proceed for 60 minutes at room temperature then halted by the addition of 13 μl of PiColor Lock reagent. After a further 5 minutes of incubation at room temperature, […] of PiColor Stabilizer was added and the reactions were further incubated at 25° C. for 25 minutes. […] Recombinant MAT2A protein was expressed in SF9 insect cells and purified by metal chelate affinity chromatography, using methods well known in the art. After expression of His6-tagged MAT2A cells were disrupted by 4 passes through an M-Yl 10 Micro fluidizer (Microfluidics) set to 500 psi, and then centrifuged at 22,000 rcf for 20 min at 4° C. The supernatant was harvested and loaded at 15 cm/h on a Histrap FF 5*1 ml column (GE) which was equilibrated with 50 mM Tris, 500 mM NaCl, pH7.4. Host cell contaminants were removed by washing the column with equilibration buffer followed by equilibration buffer containing 20 mM imidazole and 60 mM imidazole to baseline. MAT2A protein was eluted by the addition of buffer containing 250 mM imidazole, dialized into 50 mM NaCl, 50 mM Tris, pH 7.4, flash frozen in liquid nitrogen, and stored at −80° C. until use.

Compound | IC50 [µM]
Cc1[nH]c2c(N3CCCCC3)c(-c3ccccc3)nn2c(=O)c1C1CCCC1 [Compound 300, 6-cyclopentyl-5-methyl-2-phenyl-3-(piperidin-1-yl)pyrazolo[1,5-a]pyrimidin-7(4H)-one] | 0.1 to 1
COc1ccc(-c2c(Nc3ccnc(O)n3)[nH]c3c(-c4ccccc4)c(-c4ccccc4)nn3c2=O)cc1 [Compound 119, 5-(2-hydroxypyrimidin-4-ylamino)-6-(4-methoxyphenyl)-2,3-diphenyl-pyrazolo[1,5-a]pyrimidin-7(4H)-one] | < 0.1
COc1ccc(-c2c(Nc3cc(N)ncn3)[nH]c3c(-c4ccccc4)c(-c4ccccc4)nn3c2=O)cc1 [Compound 117, 5-((6-aminopyrimidin-4-yl)amino)-6-(4-methoxyphenyl)-2,3-diphenylpyrazolo[1,5-a]pyrimidin-7(4H)-one] | < 0.1
Cc1[nH]c2c(-c3ccccc3)c(-c3ccc(N)cc3)nn2c(=O)c1-c1ccc2ncccc2c1 [Compound 250, 2-(4-aminophenyl)-5-methyl-3-phenyl-6-(quinolin-6-yl)pyrazolo[1,5-a]pyrimidin-7(4H)-one] | < 0.1
Cc1[nH]c2c(N3CCCCC3)c(-c3ccccc3)nn2c(=O)c1-c1ccc(O)nc1 [Compound 309, 6-(6-hydroxypyridin-3-yl)-5-methyl-2-phenyl-3-(piperidin-1-yl)pyrazolo[1,5-a]pyrimidin-7(4H)-one] | 0.1 to 1
COc1ccc(-c2c(Nc3ncc(C#N)cn3)[nH]c3c(-c4ccccc4)c(-c4ccccc4)nn3c2=O)cc1 [Compound 115, 2-(6-(4-methoxyphenyl)-7-oxo-2,3-diphenyl-4,7-dihydropyrazolo[1,5-a]pyrimidin-5-ylamino)pyrimidine-5-carbonitrile] | < 0.1
COc1ccc(-c2c(Nc3ccccn3)[nH]c3c(-c4ccccc4)c(-c4ccccc4)nn3c2=O)cc1 [Compound 102, 6-(4-methoxyphenyl)-2,3-diphenyl-5-(pyridin-2-ylamino)pyrazolo[1,5-a]pyrimidin-7(4H)-one] | < 0.1
Cc1c(-c2ccc(O)cc2)c(=O)n2nc(-c3ccccc3)c(-c3cccs3)c2n1C [Compound 271, 6-(4-hydroxyphenyl)-4,5-dimethyl-2-phenyl-3-(thiophen-2-yl)pyrazolo[1,5-a]pyrimidin-7(4H)-one] | < 0.1
O=c1c(-c2ccc(O)cc2)c(O)[nH]c2c(-c3ccccc3)c(-c3ccccc3)nn12 [Compound 273, 5-hydroxy-6-(4-hydroxyphenyl)-2,3-diphenylpyrazolo[1,5-a]pyrimidin-7(4H)-one] | < 0.1
Cc1[nH]c2c(C3=CCCCC3)c(-c3ccccc3)nn2c(=O)c1-c1ccc2nccnc2c1 [Compound 208, 3-(cyclohex-1-en-1-yl)-5-methyl-2-phenyl-6-(quinoxalin-6-yl)pyrazolo[1,5-a]pyrimidin-7(4H)-one] | < 0.1
Cc1[nH]c2c(C3=CCCCC3)c(-c3ccccc3)nn2c(=O)c1-c1ccc(OC(=O)[C@@H](N)C(C)C)cc1 [Compound 294, (S)-4-(3-cyclohexenyl-5-methyl-7-oxo-2-phenyl-4,7-dihydropyrazolo[1,5-a]pyrimidin-6-yl)phenyl 2-amino-3-methylbutanoate] | < 0.1
Cc1[nH]c2c(-c3ccccc3)c(-c3ccncc3)nn2c(=O)c1-c1ccc2ncccc2c1 [Compound 348, 5-methyl-3-phenyl-2-(pyridin-4-yl)-6-(quinolin-6-yl)pyrazolo[1,5-a]pyrimidin-7(4H)-one] | 1 to 10
COc1ccc(-c2c(Nc3nc(OC)ns3)[nH]c3c(-c4ccccc4)c(-c4ccccc4)nn3c2=O)cc1 [Compound 148, 5-((3-methoxy-1,2,4-thiadiazol-5-yl)amino)-6-(4-methoxyphenyl)-2,3-diphenylpyrazolo[1,5-a]pyrimidin-7(4H)-one] | < 0.1
O=C(NCc1cc[nH]n1)c1[nH]c2c(-c3ccccc3)c(-c3ccccc3)nn2c(=O)c1-c1ccc2ncccc2c1 [Compound 328, N-((1H-pyrazol-3-yl)methyl)-7-oxo-2,3-diphenyl-6-(quinolin-6-yl)-4,7-dihydropyrazolo[1,5-a]pyrimidine-5-carboxamide] | 1 to 10
COc1ccc(-c2c(Nc3cccnc3)[nH]c3c(-c4ccccc4)c(-c4ccccc4)nn3c2=O)cc1 [Compound 103, 6-(4-methoxyphenyl)-2,3-diphenyl-5-(pyridin-3-ylamino)pyrazolo[1,5-a]pyrimidin-7(4H)-one] | < 0.1
NCc1[nH]c2c(-c3ccccc3)c(-c3ccccc3)nn2c(=O)c1-c1ccc2ncccc2c1 [Compound 224, 5-(aminomethyl)-2,3-diphenyl-6-(quinolin-6-yl)pyrazolo[1,5-a]pyrimidin-7(4H)-one] | < 0.1
COc1ccc(-c2c(Nc3nccnn3)[nH]c3c(C4=CCCCC4)c(-c4ccccc4)nn3c2=O)cc1 [Compound 161, 5-((1,2,4-triazin-3-yl)amino)-3-(cyclohex-1-en-1-yl)-6-(4-methoxyphenyl)-2-phenylpyrazolo[1,5-a]pyrimidin-7(4H)-one] | < 0.1
COc1ccc(-c2c(Nc3cc[nH]n3)[nH]c3c(-c4ccccc4)c(-c4ccccc4)nn3c2=O)cc1 [Compound 182, 5-((1H-pyrazol-3-yl)amino)-6-(4-methoxyphenyl)-2,3-diphenylpyrazolo[1,5-a]pyrimidin-7(4H)-one] | < 0.1
COc1ccc(-c2c(NC3=NCCS3)[nH]c3c(-c4ccccc4)c(-c4ccccc4)nn3c2=O)cc1 [Compound 143, 5-((4,5-dihydrothiazol-2-yl)amino)-6-(4-methoxyphenyl)-2,3-diphenylpyrazolo[1,5-a]pyrimidin-7(4H)-one] | < 0.1
Nc1[nH]c2c(-c3ccccc3)c(-c3ccccc3)nn2c(=O)c1-c1ccc(O)cc1 [Compound 276, 5-amino-6-(4-hydroxyphenyl)-2,3-diphenylpyrazolo[1,5-a]pyrimidin-7(4H)-one] | < 0.1
Cc1[nH]c2c(N3CCCCC3)c(-c3ccccc3)nn2c(=O)c1-c1ccc(S(C)(=O)=O)cc1 [Compound 306, 5-methyl-6-(4-(methylsulfonyl)phenyl)-2-phenyl-3-(piperidin-1-yl)pyrazolo[1,5-a]pyrimidin-7(4H)-one] | 1 to 10
Cc1[nH]c2c(-c3ccccc3)c(-c3ccccc3)nn2c(=O)c1-c1ccc2nnccc2c1 [Compound 335, 6-(cinnolin-6-yl)-5-methyl-2,3-diphenylpyrazolo[1,5-a]pyrimidin-7(4H)-one] | 0.1 to 1
Cc1[nH]c2c(N3CCCCC3)c(-c3ccccc3)nn2c(=O)c1-c1ccc(N)cc1 [Compound 307, 6-(4-aminophenyl)-5-methyl-2-phenyl-3-(piperidin-1-yl)pyrazolo[1,5-a]pyrimidin-7(4H)-one] | 0.1 to 1
COc1ccc(-c2c(Nc3nccs3)[nH]c3c(-c4ccccc4)c(-c4ccccc4)nn3c2=O)cc1 [Compound 137, 6-(4-methoxyphenyl)-2,3-diphenyl-5-(thiazol-2-ylamino)pyrazolo[1,5-a]pyrimidin-7(4H)-one] | < 0.1
NCc1[nH]c2c(C3=CCCCC3)c(-c3ccccc3)nn2c(=O)c1-c1ccc2ncccc2c1 [Compound 233, 5-(aminomethyl)-3-(cyclohex-1-en-1-yl)-2-phenyl-6-(quinolin-6-yl)pyrazolo[1,5-a]pyrimidin-7(4H)-one] | < 0.1
COc1ccc(-c2nn3c(=O)c(-c4ccc5ncccc5c4)c(C)[nH]c3c2-c2ccccc2)cn1 [Compound 349, 2-(6-methoxypyridin-3-yl)-5-methyl-3-phenyl-6-(quinolin-6-yl)pyrazolo[1,5-a]pyrimidin-7(4H)-one] | 1 to 10
COc1ccc(-c2c(Nc3cc(OC)[nH]n3)[nH]c3c(-c4ccccc4)c(-c4ccccc4)nn3c2=O)cc1 [Compound 183, 5-((5-methoxy-1H-pyrazol-3-yl)amino)-6-(4-methoxyphenyl)-2,3-diphenylpyrazolo[1,5-a]pyrimidin-7(4H)-one] | < 0.1
COc1ccc(-c2c(NCCO)[nH]c3c(-c4ccccc4)c(-c4ccccc4)nn3c2=O)cc1 [Compound 286, 5-((2-hydroxyethyl)amino)-6-(4-methoxyphenyl)-2,3-diphenylpyrazolo[1,5-a]pyrimidin-7(4H)-one] | < 0.1
COc1ccc(-c2c(Nc3ccc(C#N)cn3)[nH]c3c(-c4ccccc4)c(-c4ccccc4)nn3c2=O)cc1 [Compound 104, 6-((6-(4-methoxyphenyl)-7-oxo-2,3-diphenyl-4,7-dihydropyrazolo[1,5-a]pyrimidin-5-yl)amino)nicotinonitrile] | < 0.1
NCc1[nH]c2c(C3=CCCCC3)c(-c3ccccc3)nn2c(=O)c1-c1ccc2nccnc2c1 [Compound 234, 5-(aminomethyl)-3-(cyclohex-1-en-1-yl)-2-phenyl-6-(quinoxalin-6-yl)pyrazolo[1,5-a]pyrimidin-7(4H)-one] | < 0.1
